Assay results published in patent US9029377B2, “Platelet-activating factor receptor antagonists” (Merck Sharp & Dohme Corp., priority 2009, dated 2015).

Biological target: PAFR (Homo sapiens, UniProt P25105)
Test: PAF Binding Assay (PAFR binding)

Chain of PAFR (P25105 whole entry): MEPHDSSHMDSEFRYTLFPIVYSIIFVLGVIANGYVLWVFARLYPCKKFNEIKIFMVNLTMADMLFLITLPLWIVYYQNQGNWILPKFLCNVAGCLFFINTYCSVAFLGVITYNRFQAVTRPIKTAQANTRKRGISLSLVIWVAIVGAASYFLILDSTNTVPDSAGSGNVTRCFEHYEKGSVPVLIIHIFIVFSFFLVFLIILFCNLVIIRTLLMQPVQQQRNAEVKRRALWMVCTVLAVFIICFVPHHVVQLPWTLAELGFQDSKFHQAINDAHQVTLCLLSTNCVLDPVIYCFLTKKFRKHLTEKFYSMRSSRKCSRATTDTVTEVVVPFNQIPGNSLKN

First: O=S(=O)(N[C@H]1CCC[C@@H](n2cnnc2)C1)c1cc(-c2cc(Cl)cn3cc(CCl)nc23)cc(C(F)(F)F)c1 [Compound 3Aav, 3-[6-chloro-2-(chloromethyl)imidazo[1,2-a]pyridin-8-yl]-N-[(1S,3R)-3-(4H-1,2,4-triazol-4-yl)cyclohexyl]-5-(trifluoromethyl)benzenesulfonamide]
Second: CCOC(=O)c1cn2cc(Cl)cc(-c3cc(C(F)(F)F)cc(S(=O)(=O)N[C@H]4CCC[C@@H](n5cnnc5)C4)c3)c2n1 [Compound 3Aaw, ethyl 6-chloro-8-[3-({[(1S,3R)-3-(4H-1,2,4-triazol-4-yl)cyclohexyl]amino}sulfonyl)-5-(trifluoromethyl)phenyl]imidazo[1,2-a]pyridine-2-carboxylate]
The IC50 of the first is 44-fold higher: 22 nM for the first, 0.5 nM for the second.

`Cc1nncn1[C@@H]1CCC[C@H](NS(=O)(=O)c2cc(-c3ccc(F)cc3)cc(C(F)(F)F)c2)C1` [Compound 3Ab, 4′-fluoro-N-[(1S,3R)-3-(3-methyl-4H-1,2,4-triazol-4-yl)cyclohexyl]-5-(trifluoromethyl)biphenyl-3-sulfonamide] and `O=S(=O)(N[C@H]1CCC[C@@H](n2cnnc2)C1)c1cc(-c2ccc(F)cc2)cc(C(F)(F)F)c1` [Compound 3Ac, 4′-fluoro-N-[(1S,3R)-3-(4H-1,2,4-triazol-4-yl)cyclohexyl]-5-(trifluoromethyl)biphenyl-3-sulfonamide] are within 1.5-fold of each other in IC50: 4.8 nM for the first, 6.2 nM for the second.

Compared with `O=S(=O)(N[C@H]1CCC[C@@H](n2cnnc2)C1)c1cc(-c2ccccc2)cc(C(F)(F)F)c1` [Compound 3Ae, N-[(1S,3R)-3-(4H-1,2,4-triazol-4-yl)cyclohexyl]-5-(trifluoromethyl)biphenyl-3-sulfonamide], `O=S(=O)(N[C@H]1CCC[C@@H](n2cnnc2)C1)c1cc(OC(F)(F)F)cc(-c2ccccc2)c1` [Compound 3Ea, N-[(1S,3R)-3-(4H-1,2,4-triazol-4-yl)cyclohexyl]-5-(trifluoromethoxy)biphenyl-3-sulfonamide] is 1.7-fold higher in IC50: 5.9 nM for the first, 10 nM for the second.

First: COc1ccc(-c2cc(C(F)(F)F)cc(S(=O)(=O)N[C@H]3CCC[C@@H](n4cnnc4)C3)c2)cn1 [Compound 3Af, 3-(6-methoxypyridin-3-yl)-N-[(1S,3R)-3-(4H-1,2,4-triazol-4-yl)cyclohexyl]-5-(trifluoromethyl)benzenesulfonamide]
Second: O=S(=O)(N[C@H]1CCC[C@@H](n2cnnc2)C1)c1cc(-c2ccc(O)nc2)cc(C(F)(F)F)c1 [Compound 3Ai, 3-(6-hydroxypyridin-3-yl)-N-[(1S,3R)-3-(4H-1,2,4-triazol-4-yl)cyclohexyl]-5-(trifluoromethyl)benzenesulfonamide]
The IC50 of the first is 130-fold lower: 4.2 nM for the first, 526 nM for the second.

Going from `COc1ncccc1-c1cc(C(F)(F)F)cc(S(=O)(=O)N[C@H]2CCC[C@@H](n3cnnc3)C2)c1` [Compound 3Ag, 3-(2-methoxypyridin-3-yl)-N-[(1S,3R)-3-(4H-1,2,4-triazol-4-yl)cyclohexyl]-5-(trifluoromethyl)benzenesulfonamide] to `O=S(=O)(N[C@H]1CCC[C@@H](n2cnnc2)C1)c1cc(-c2cccnc2O)cc(C(F)(F)F)c1` [Compound 3Aj, 3-(2-hydroxypyridin-3-yl)-N-[(1S,3R)-3-(4H-1,2,4-triazol-4-yl)cyclohexyl]-5-(trifluoromethyl)benzenesulfonamide], the IC50 rises from 4.5 nM to 12 nM (2.7-fold). The first is the more potent here.

`O=S(=O)(N[C@H]1CCC[C@@H](n2cnnc2)C1)c1cc(-c2noc(C3CC3)n2)cc(C(F)(F)F)c1` [Compound 3Ah, 3-(5-cyclopropyl-1,2,4-oxadiazol-3-yl)-N-[(1S,3R)-3-(4H-1,2,4-triazol-4-yl)cyclohexyl]-5-(trifluoromethyl)benzenesulfonamide] and `Nc1cnc(-c2cc(C(F)(F)F)cc(S(=O)(=O)N[C@H]3CCC[C@@H](n4cnnc4)C3)c2)cn1` [Compound 3Aw, 3-(5-aminopyrazin-2-yl)-N-[(1S,3R)-3-(4H-1,2,4-triazol-4-yl)cyclohexyl]-5-(trifluoromethyl)benzenesulfonamide] are within 1.5-fold of each other in IC50: 7.8 nM for the first, 6.6 nM for the second.

Going from `O=S(=O)(N[C@H]1CCC[C@@H](n2cnnc2)C1)c1cc(-c2ccc(C(F)(F)F)cc2)cc(C(F)(F)F)c1` [Compound 3Al, N-[(1S,3R)-3-(4H-1,2,4-triazol-4-yl)cyclohexyl]-4′,5-bis(trifluoromethyl)biphenyl-3-sulfonamide] to `O=S(=O)(N[C@H]1CCC[C@@H](n2cnnc2)C1)c1cc(-c2ccncc2)cc(C(F)(F)F)c1` [Compound 3An, 3-pyridin-4-yl-N-[(1S,3R)-3-(4H-1,2,4-triazol-4-yl)cyclohexyl]-5-(trifluoromethyl)benzenesulfonamide], the IC50 rises from 8.1 nM to 36 nM (4.4-fold).

`O=S(=O)(N[C@H]1CCC[C@@H](n2cnnc2)C1)c1cc(-c2ccccc2OC(F)(F)F)cc(C(F)(F)F)c1` [Compound 3Am, N-[(1S,3R)-3-(4H-1,2,4-triazol-4-yl)cyclohexyl]-2′-(trifluoromethoxy)-5-(trifluoromethyl)biphenyl-3-sulfonamide] and `O=S(=O)(N[C@H]1CCC[C@@H](n2cnnc2)C1)c1cc(-c2ccccc2F)cc(C(F)(F)F)c1` [Compound 3At, 2′-fluoro-N-[(1S,3R)-3-(4H-1,2,4-triazol-4-yl)cyclohexyl]-5-(trifluoromethyl)biphenyl-3-sulfonamide] are within 1.5-fold of each other in IC50: 4.9 nM for the first, 5.4 nM for the second.

Compared with `O=S(=O)(N[C@H]1CCC[C@@H](n2cnnc2)C1)c1cc(-c2cccc3ccccc23)cc(C(F)(F)F)c1` [Compound 3Ao, 3-(1-naphthyl)-N-[(1S,3R)-3-(4H-1,2,4-triazol-4-yl)cyclohexyl]-5-(trifluoromethyl)benzenesulfonamide], `O=S(=O)(N[C@H]1CCC[C@@H](n2cnnc2)C1)c1cc(-c2cccc3cnccc23)cc(C(F)(F)F)c1` [Compound 3Az, 3-isoquinolin-5-yl-N-[(1S,3R)-3-(4H-1,2,4-triazol-4-yl)cyclohexyl]-5-(trifluoromethyl)benzenesulfonamide] is 1.5-fold lower in IC50: 15 nM for the first, 10 nM for the second.

`O=S(=O)(N[C@H]1CCC[C@@H](n2cnnc2)C1)c1cc(-c2ccc3ncccc3c2)cc(C(F)(F)F)c1` [Compound 3Ap, 3-quinolin-6-yl-N-[(1S,3R)-3-(4H-1,2,4-triazol-4-yl)cyclohexyl]-5-(trifluoromethyl)benzenesulfonamide] and `O=S(=O)(N[C@H]1CCC[C@@H](n2cnnc2)C1)c1cc(-c2cccc(F)c2)cc(C(F)(F)F)c1` [Compound 3As, 3′-fluoro-N-[(1S,3R)-3-(4H-1,2,4-triazol-4-yl)cyclohexyl]-5-(trifluoromethyl)biphenyl-3-sulfonamide] are within 1.5-fold of each other in IC50: 3.3 nM for the first, 3.9 nM for the second.

First: O=S(=O)(N[C@H]1CCC[C@@H](n2cnnc2)C1)c1cc(-c2cccc3ccsc23)cc(C(F)(F)F)c1 [Compound 3Aq, 3-(1-benzothien-7-yl)-N-[(1S,3R)-3-(4H-1,2,4-triazol-4-yl)cyclohexyl]-5-(trifluoromethyl)benzenesulfonamide]
Second: O=S(=O)(N[C@H]1CCC[C@@H](n2cnnc2)C1)c1cc(-c2cccc(F)n2)cc(C(F)(F)F)c1 [Compound 3Ax, 3-(6-fluoropyridin-2-yl)-N-[(1S,3R)-3-(4H-1,2,4-triazol-4-yl)cyclohexyl]-5-(trifluoromethyl)benzenesulfonamide]
The IC50 of the first is 1.5-fold higher: 7 nM for the first, 4.6 nM for the second. The second is the more potent here.

First: O=S(=O)(N[C@H]1CCC[C@@H](n2cnnc2)C1)c1cc(-c2cccnc2)cc(C(F)(F)F)c1 [Compound 3Ar, 3-pyridin-3-yl-N-[(1S,3R)-3-(4H-1,2,4-triazol-4-yl)cyclohexyl]-5-(trifluoromethyl)benzenesulfonamide]
Second: O=S(=O)(N[C@H]1CCC[C@@H](n2cnnc2)C1)c1cc(-c2ccnc(F)c2)cc(C(F)(F)F)c1 [Compound 3Av, 3-(2-fluoropyridin-4-yl)-N-[(1S,3R)-3-(4H-1,2,4-triazol-4-yl)cyclohexyl]-5-(trifluoromethyl)benzenesulfonamide]
The IC50 of the first is 2.1-fold higher: 32 nM for the first, 15 nM for the second.

First: CCc1cc(-c2cccnc2OCC(F)(F)F)cc(S(=O)(=O)N[C@H]2CCC[C@@H](n3cnnc3)C2)c1 [Compound 3Bam, 3-ethyl-N-[(1S,3R)-3-(4H-1,2,4-triazol-4-yl)cyclohexyl]-5-[2-(2,2,2-trifluoroethoxy)pyridin-3-yl]benzenesulfonamide]
Second: CCc1cc(-c2ccc(OCC(F)(F)F)nn2)cc(S(=O)(=O)N[C@H]2CCC[C@@H](n3cnnc3)C2)c1 [Compound 3Bay, 3-ethyl-N-[(1S,3R)-3-(4H-1,2,4-triazol-4-yl)cyclohexyl]-5-[6-(2,2,2-trifluoroethoxy)pyridazin-3-yl]benzenesulfonamide]
The IC50 of the first is 1.7-fold higher: 9.5 nM for the first, 5.7 nM for the second.

Compared with `CCc1cc(-c2cnc3ccnn3c2)cc(S(=O)(=O)N[C@H]2CCC[C@@H](n3cnnc3)C2)c1` [Compound 3Bax, 3-ethyl-5-pyrazolo[1,5-a]pyrimidin-6-yl-N-[(1S,3R)-3-(4H-1,2,4-triazol-4-yl)cyclohexyl]benzenesulfonamide], `CCc1cc(-c2ccnnc2)cc(S(=O)(=O)N[C@H]2CCC[C@@H](n3cnnc3)C2)c1` [Compound 3Baz, 3-ethyl-5-pyridazin-4-yl-N-[(1S,3R)-3-(4H-1,2,4-triazol-4-yl)cyclohexyl]benzenesulfonamide] is 9.5-fold higher in IC50: 22 nM for the first, 208 nM for the second.

Going from `CCc1cc(-c2cccc3cccnc23)cc(S(=O)(=O)N[C@H]2CCC[C@@H](n3cnnc3)C2)c1` [Compound 3Bd, 3-ethyl-5-quinolin-8-yl-N-[(1S,3R)-3-(4H-1,2,4-triazol-4-yl)cyclohexyl]benzenesulfonamide] to `CCc1cc(-c2cccc3cccnc23)cc(S(=O)(=O)N[C@@H]2C[C@H](n3cnnc3C)CC(F)(F)C2)c1` [Compound 3Da, N-[(1R,5S)-3,3-difluoro-5-(3-methyl-4H-1,2,4-triazol-4-yl)cyclohexyl]-3-ethyl-5-quinolin-8-ylbenzenesulfonamide], the IC50 rises from 0.9 nM to 1.8 nM (2-fold). The first is the more potent here.

Going from `Cc1nncn1[C@H]1C[C@@H](NS(=O)(=O)c2cc(-c3cccc4cccnc34)cc(C(F)(F)F)c2)CC(F)(F)C1` [Compound 3Ca, N-[(1R,5S)-3,3-difluoro-5-(3-methyl-4H-1,2,4-triazol-4-yl)cyclohexyl]-3-quinolin-8-yl-5-(trifluoromethyl)benzenesulfonamide] to `O=S(=O)(N[C@@H]1C[C@H](n2cnnc2)CC(F)(F)C1)c1cc(-c2cccc3cccnc23)cc(C(F)(F)F)c1` [Compound 3Cd, N-[(1R,5S)-3,3-difluoro-5-(4H-1,2,4-triazol-4-yl)cyclohexyl]-3-quinolin-8-yl-5-(trifluoromethyl)benzenesulfonamide], the IC50 rises from 0.4 nM to 4.8 nM (12-fold). The first is the more potent here.
